Series [1] has as its system Trypanosoma brucei. Description: Antitrypanosomal activity against Trypanosoma brucei assessed as reduction in parasite growth. Format: functional, organism-based.
The target of series [2] is T1, Glycylpeptide N-tetradecanoyltransferase 1 (Homo sapiens, UniProt P30419).
T1 sequence (P30419 whole entry): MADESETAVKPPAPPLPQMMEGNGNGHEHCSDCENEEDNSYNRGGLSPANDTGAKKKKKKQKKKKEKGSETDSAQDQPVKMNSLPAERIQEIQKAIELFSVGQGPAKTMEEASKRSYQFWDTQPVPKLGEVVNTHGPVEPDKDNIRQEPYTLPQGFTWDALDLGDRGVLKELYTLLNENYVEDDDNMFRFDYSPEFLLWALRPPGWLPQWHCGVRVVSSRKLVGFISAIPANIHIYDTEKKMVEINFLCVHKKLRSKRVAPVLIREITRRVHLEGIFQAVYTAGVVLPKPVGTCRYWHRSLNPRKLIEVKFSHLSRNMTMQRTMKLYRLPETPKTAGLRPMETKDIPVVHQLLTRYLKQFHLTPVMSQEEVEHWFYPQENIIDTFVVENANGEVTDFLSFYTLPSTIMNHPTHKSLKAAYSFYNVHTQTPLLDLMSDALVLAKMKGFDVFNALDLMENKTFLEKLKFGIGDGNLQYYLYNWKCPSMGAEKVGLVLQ
Description: Inhibition of human NMT1.

For series [3], the target named is T2, Glycylpeptide N-tetradecanoyltransferase (Plasmodium falciparum, UniProt Q9U419).
T2 sequence (Q9U419 whole entry): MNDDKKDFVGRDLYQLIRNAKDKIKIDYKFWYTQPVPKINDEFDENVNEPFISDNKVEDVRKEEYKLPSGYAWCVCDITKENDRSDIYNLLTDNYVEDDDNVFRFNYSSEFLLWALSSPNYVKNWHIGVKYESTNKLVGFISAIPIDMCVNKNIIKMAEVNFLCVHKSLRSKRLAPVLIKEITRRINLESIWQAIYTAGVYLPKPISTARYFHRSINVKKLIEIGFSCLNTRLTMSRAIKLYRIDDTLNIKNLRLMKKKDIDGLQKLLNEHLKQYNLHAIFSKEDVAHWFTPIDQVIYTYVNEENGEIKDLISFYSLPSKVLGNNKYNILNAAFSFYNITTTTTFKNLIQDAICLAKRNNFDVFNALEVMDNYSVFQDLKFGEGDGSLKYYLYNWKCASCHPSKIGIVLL
Description: Inhibition of recombinant Plasmodium falciparum NMT using 3H-myristoyl CoA as substrate preincubated for 15 mins followed by substrate addition and measured after 80 mins.

The target of series [4] is T3, Glycylpeptide N-tetradecanoyltransferase 2 (Homo sapiens, UniProt O60551).
T3 sequence (O60551 whole entry): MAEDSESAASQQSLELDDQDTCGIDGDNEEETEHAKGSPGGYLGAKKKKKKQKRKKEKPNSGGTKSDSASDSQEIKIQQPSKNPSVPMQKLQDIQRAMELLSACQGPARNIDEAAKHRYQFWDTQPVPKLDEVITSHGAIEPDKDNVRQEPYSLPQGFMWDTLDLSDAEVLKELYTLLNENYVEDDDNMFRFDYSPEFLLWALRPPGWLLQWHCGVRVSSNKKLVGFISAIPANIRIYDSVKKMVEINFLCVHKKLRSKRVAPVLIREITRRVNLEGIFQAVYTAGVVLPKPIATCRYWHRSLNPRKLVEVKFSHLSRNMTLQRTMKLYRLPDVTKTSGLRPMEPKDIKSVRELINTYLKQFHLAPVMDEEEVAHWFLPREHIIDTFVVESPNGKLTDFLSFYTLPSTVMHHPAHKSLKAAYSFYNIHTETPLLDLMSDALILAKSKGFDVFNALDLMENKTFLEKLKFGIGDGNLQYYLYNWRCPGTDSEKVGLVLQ
Description: Inhibition of human NMT2.

The subject of series [5] is Leishmania donovani. The series is described as follows: Antileishmanial activity against Leishmania donovani amastigotes. It is filed as functional, organism-based.
Series [6] can be described thus: Binding affinity to Leishmania donovani NMT assessed as apparent inhibition constant. The settings on record: read-out: Ki(app).
In series [7] the test system is Trypanosoma cruzi. The series is described as follows: Antiprotozoal activity against Trypanosoma cruzi epimastigotes assessed as reduction in parasite growth relative to control. It is filed as functional. Also noted: scale not given: the % may be the effect or the level left.
The subject of series [8] is Trypanosoma cruzi. The series is described as follows: Antiprotozoal activity against Trypanosoma cruzi amastigotes measured after 24 hrs. It is filed as functional, organism-based.
Series [9] has as its system Leishmania donovani. Description: Antileishmanial activity against Leishmania donovani MHOM/ET/67/HU3 infected in BALB/c mouse model assessed as reduction in parasitic load at 50 mg/kg, po measured after 5 days relative to control. It is filed as functional. More on the design: scale not given: the % may be the effect or the level left. To be noted: time 5 day.
In series [10] the test system is Leishmania donovani. The series is described as follows: Antileishmanial activity against Leishmania donovani MHOM/ET/67/HU3 axenic amastigotes. Format: functional, organism-based.
For series [11], the system named is Leishmania donovani. The series is described as follows: Antileishmanial activity against Leishmania donovani promastigote assessed as reduction in parasite growth measured after 72 hrs. Format: functional, organism-based.
In series [12] the test system is Trypanosoma brucei brucei. The series is described as follows: Antitrypanosomal activity against bloodstream Trypanosoma brucei brucei s427 assessed as reduction in parasite growth measured after 72 hrs by inverted microscope based analysis. It is filed as functional, organism-based. To be noted: s427, 72 h.
Series [13] is described as follows: Cytotoxicity against mouse RAW 264 cells by alamar blue staining based analysis. The settings on record: RAW264.7, read-out: ED50 (the source's name). It is filed as functional. For orientation: Alamar Blue is a resazurin reagent that responds to reducing activity.
For series [14], the system named is Trypanosoma brucei. The series is described as follows: Antiprotozoal activity against blood stream form Trypanosoma brucei assessed as reduction in number of viable parasites measured after 72 hrs by Alamar blue staining based analysis. To be noted: read-out: ED50 (the source's name). It is filed as functional.
A short description of series [15]: Inhibition of N terminal his-6 tagged recombinant Trypanosoma brucei NMT using CAP5.5 peptide as substrate incubated for 10 mins.
Series [16] can be described thus: Inhibition of N terminal his-6 tagged recombinant Trypanosoma brucei NMT incubated for 30 mins using biotinylated peptide substrate by scintillation counter analysis.
For series [17], the system named is Leishmania amazonensis. Description: Antileishmanial activity against Leishmania amazonensis IFLA/BR/1967/PH8 promastigote. It is filed as functional, organism-based.
Series [18] can be described thus: Inhibition of Trypanosoma brucei NMT.
A short description of series [19]: Cytotoxicity against MDCK cells incubated overnight by MTT assay. To be noted: dog. It is filed as toxicity, cell-based, Canis lupus familiaris. (In general: Tetrazolium dyes change colour on reduction, which living cells bring about.)
The subject of series [20] is Plasmodium falciparum. Description: Antiplasmodial activity against chloroquine resistant Plasmodium falciparum K1 assessed as inhibition of plasmodial growth measured after 48 hrs by flow cytometry analysis. It is filed as functional, organism-based. To be noted: K1, 48 h. On the technique in general: In flow cytometry, cells or beads pass a laser one at a time.
The nature of series [21]: Selectivity index, ratio of IC50 for MDCK cells to IC50 for trophozoite stage Plasmodium falciparum 3D7. Format: toxicity. The settings on record: dog; read-out: Ratio IC50.
In series [22] the test system is Plasmodium falciparum. The series is described as follows: Antiplasmodial activity against trophozoite stage Plasmodium falciparum 3D7 assessed as inhibition of plasmodial growth measured after 48 hrs by flow cytometry analysis. Format: functional, organism-based. The settings on record: 3D7, 48 h.
Series [23] is described as follows: Inhibition of Trypanosoma brucei NMT by scintillation proximity assay.
For series [24], the target named is T2, Glycylpeptide N-tetradecanoyltransferase. The series is described as follows: Inhibition of recombinant his tagged Plasmodium falciparum NMT expressed in Escherichia coli.
Series [25] relates to Plasmodium falciparum. Description: Antiplasmodial activity against Plasmodium falciparum 3D7 assessed as reduction in parasitemia growth. It is filed as functional, organism-based.
The test system of series [26] is Leishmania donovani. Description: Antileishmanial activity against Leishmania donovani promastigotes. It is filed as functional, organism-based.

Here are results for 21 compounds from ChEMBL document CHEMBL5634069, “Exploring N-myristoyltransferase as a promising drug target against parasitic neglected tropical diseases” (Eur J Med Chem, 2023).

The structures appear in SMILES notation.

Regarding `Cc1cc(CN2C(=O)COc3c(CCCCC4CCN(C)CC4)cccc32)no1`, the EC50 in series [1] was determined as 0.007 µM.

Take `Cc1ncc(CNC(=O)C2CN(c3nc(NCCN(C)C)ncc3Cl)C2)cn1`: the values for the IC50 in series [2], in [3] and in series [4] were 70 µM, 0.48 µM and 76 µM, respectively.

The compound `Cc1nn(C)c(C)c1NS(=O)(=O)c1c(Cl)cc(-c2ccnc(N3CCN(C)CC3)c2)cc1Cl` displayed an EC50 in [5] of 0.15 µM. Moreover, in series [6], the Ki is 0.0063 µM. On to `Cc1c(NS(=O)(=O)c2c(Cl)cc(-c3ccnc(N4CCNCC4)c3)cc2Cl)c(CC(C)C)nn1C` [ZELENIRSTAT], for which the Activity in [7] is reported as 0.43%. Further, the EC50 in series [8] was 1.83 µM. On to `Cc1nn(C)c(C)c1N(C(F)F)S(=O)(=O)c1c(Cl)cc(CCCC2CCN(C)CC2)cc1Cl`, for which the Activity in [9] amounted to 52%. In [10], the EC50 turned out to be 2.4 µM.

On to `Cc1ccc(S(=O)(=O)Nc2ccccc2Sc2ncnc3c(C)csc23)cc1`, for which the IC50 – broadly, the concentration that gives 50% inhibition – in series [11] is 32.1 µM; in [12], 9.36 µM. With `Cc1c2c(c(O)c3c(O)cccc13)C(=O)OC2c1cc(O)c(C(N)=O)c(O)c1O` (centres undefined), the EC50 in [13] was found to be 328 µM; in [14], 16 µM. Besides, the IC50 in series [15] amounted to 0.46 µM; in series [16], 0.77 µM. As to `COc1ccc(NC(=O)C[Se]C(=O)c2ccccc2)cc1`, the IC50 in [17] is 8.71 µM. In the case of `Cc1cc(CN2C(=O)COc3ccccc32)no1`, the IC50 in [18] stood at 2.9 µM. For the compound `O=[N+]([O-])c1ccc(S(=O)(=O)N2CCC(O[C@@H](c3ccc(Cl)cc3)c3ccccn3)CC2)cc1`, the IC50 in series [19] was > 200 µM; in [20], 7.22 µM; in series [22], 3.27 µM. Besides, the selectivity ratio in series [21] is > 61.1.

Turning to `O=C(O)C1=CC(=C(c2ccc(O)c(C(=O)O)c2)c2ccc(O)c(C(=O)O)c2)C=CC1=O` [AURINTRICARBOXYLIC ACID], the IC50 in series [16] is 0.74 µM. As to `COc1ccc(Br)c(-c2nnc(-c3ccccc3NS(=O)(=O)c3ccc(Cl)cc3)o2)c1`, the IC50 in series [12] turned out to be 14.7 µM.

`Cc1nn(C)c(C)c1NS(=O)(=O)c1c(Cl)cc(Br)cc1Cl`: in [23], half-maximal inhibition (IC50) was put at 0.34 µM. Consider `Cc1cc(Nc2ccc([N+](=O)[O-])cc2O)nc2ccccc12`, for which the IC50 in series [24] was 1.4 µM. Also, in [25], the EC50 was found to be 0.4 µM. Compound `COc1cc(C2SCC(=O)N2Cc2ccccc2)ccc1O` (centres undefined) yielded an IC50 in [18] of 22 µM. Turning to `Cc1nn(C)c(C)c1NS(=O)(=O)c1c(Cl)cc(-c2ccnc(N3CCNCC3)c2)cc1Cl`, the results for the EC50 in [5] and in [26] were 7 µM and 23 µM, respectively. Further, the Ki in series [6] amounted to 0.0025 µM. As for `O=C(C[Se]C(=O)c1ccc(Cl)cc1)Nc1ccc(Cl)cc1`, in series [17], half-maximal inhibition (IC50) was put at 9.12 µM. As for `O=S(=O)(c1cc(Cl)ccc1Cl)N1CCC(O[C@H](c2ccc(Cl)cc2)c2ccccn2)CC1`, the IC50 in series [19] is > 200 µM; in series [20] it was 2.38 µM; in series [22], 2.17 µM. Besides, in series [21], the selectivity ratio was > 92.3.

In the case of `CCOC(=O)CN1C(=O)COc2ccccc21`, in series [18], the IC50 is 12 µM.

`O=C(C[Se]C(=O)c1ccccc1)Nc1ccc(Cl)cc1` had an IC50 in [17] of 7.08 µM.

Compound `Cc1nn(C)c(C)c1N(C(F)F)S(=O)(=O)c1c(Cl)cc(-c2ccc(CCCCC3CCN(C)CC3)cc2)cc1Cl` showed an EC50 in [8] of 0.02 µM.
